Each structure is given as a SMILES string.

The assay concerns MDA-MB-436 breast cancer cell line. The experiment in a line: Cell viability assay (MDA-MB-436). The note with it: Homo sapiens, 144 h; MDA-MB-436 cells, treated 6 days. Format: cell-based. As for the experimental part: 2. Cell Viability Assay (MDA-MB-436)
Cell viability assay was performed by using MDA-MB-436 cell line to measure cytotoxicity of compounds in the present invention. MDA-MB-436 breast cancer cell line was seeded into 96-well plates at 37° C. under 5% CO2 atmosphere using DMEM/F12 (Gibco) containing 10% FBS (Hyclone). After 24 hr incubation, cells were treated with the invented compounds at various concentrations for 6 days. The medium was changed every 3 day. 6 days later, A fluorescence reagent was used to determine the IC50 values.
For `CC1(C)NC(=O)N(C2CN(C(=O)c3cc(Cc4n[nH]c(=O)c5ccccc45)ccc3F)C2)C1=O` [Compound I-14, 3-(1-(2-fluoro-5-((4-oxo-3,4-dihydrophthalazin-1-yl)methyl)benzoyl)azetidin-3-yl)-5,5-dimethylimidazolidine-2,4-dione], the 50% inhibitory concentration (IC50) was 50 to 300 nM.
As for `O=C(c1cc(Cc2n[nH]c(=O)c3ccccc23)ccc1F)N1CC(C(=O)N2CCC(F)(F)C2)C1` [Compound I-19, 4-(3-(3-(3,3-difluoropyrrolidine-1-carbonyl)azetidine-1-carbonyl)-4-fluorobenzyl)phthalazin-1(2H)-one], the concentration for half-maximal inhibition (IC50) was 50 to 300 nM.
As for `O=C(c1cc(Cc2n[nH]c(=O)c3ccccc23)ccc1F)N1CC(C(=O)N2CCCC2)C1` [Compound I-22, 4-(4-fluoro-3-(3-(pyrrolidine-1-carbonyl)azetidine-1-carbonyl)benzyl)phthalazin-1(2H)-one], the figure is 50 to 300 nM; as for `CN(C)[C@H]1CCN(C(=O)C2CN(C(=O)c3cc(Cc4n[nH]c(=O)c5ccccc45)ccc3F)C2)C1` [Compound I-24, (S)-4-(3-(3-(3-(dimethylamino)pyrrolidine-1-carbonyl)azetidine-1-carbonyl)-4-fluorobenzyl)phthalazin-1(2H)-one], 300 to 1000 nM.
`O=C(c1cc(Cc2n[nH]c(=O)c3ccccc23)ccc1F)N1CC[C@@H](NC2CC2)C1` [Compound I-29, (R)-4-(3-(3-(cyclopropylamino)pyrrolidine-1-carbonyl)-4-fluorobenzyl)phthalazin-1(2H)-one] showed an IC50 of 300 to 1000 nM.
Regarding `O=C(c1cc(Cc2n[nH]c(=O)c3ccccc23)ccc1F)N1CC(N(CC2CC2)CC2CC2)C1` [Compound I-34, 4-(3-(3-(bis(cyclopropylmethyl)amino)azetidine-1-carbonyl)-4-fluorobenzyl)phthalazin-1(2H)-one], the IC50 lay in the range of 300 to 1000 nM.
With `CC(C)(C)CNC1CN(C(=O)c2cc(Cc3n[nH]c(=O)c4ccccc34)ccc2F)C1` [Compound I-37, 4-(4-fluoro-3-(3-(neopentylamino)azetidine-1-carbonyl)benzyl)phthalazin-1(2H)-one], the IC50 is 5 to 50 nM.
`CC1(C)CCCC1NC1CN(C(=O)c2cc(Cc3n[nH]c(=O)c4ccccc34)ccc2F)C1` (stereo not shown) [Compound I-38, 4-(3-(3-((2,2-dimethylcyclopentyl)amino)azetidine-1-carbonyl)-4-fluorobenzyl)phthalazin-1(2H)-one] displayed an IC50 of 5 to 50 nM.
As for `CCOC(=O)C1=C(NC2CN(C(=O)c3cc(Cc4n[nH]c(=O)c5ccccc45)ccc3F)C2)CCC1` [Compound I-39, ethyl 2-((1-(2-fluoro-5-((4-oxo-3,4-dihydrophthalazin-1-yl)methyl)benzoyl)azetidin-3-yl)amino)cyclopent-1-enecarboxylate], the figure is 300 to 1000 nM.
As to `O=C(c1cc(Cc2n[nH]c(=O)c3ccccc23)ccc1F)N1CC(NC(C2CC2)C2CC2)C1` [Compound I-45, 4-(3-(3-((dicyclopropylmethyl)amino)azetidine-1-carbonyl)-4-fluorobenzyl)phthalazin-1(2H)-one], the IC50 was 5 to 50 nM.
Regarding `CC(C)CC(C)NC1CN(C(=O)c2cc(Cc3n[nH]c(=O)c4ccccc34)ccc2F)C1` (stereo not shown) [Compound I-46, 4-(4-fluoro-3-(3-((4-methylpentan-2-yl)amino)azetidine-1-carbonyl)benzyl)phthalazin-1(2H)-one], the concentration for half-maximal inhibition (IC50) lay within 5 to 50 nM.
To `CCCC(C)NC1CN(C(=O)c2cc(Cc3n[nH]c(=O)c4ccccc34)ccc2F)C1` (stereo not shown) [Compound I-48, 4-(4-fluoro-3-(3-(pentan-2-ylamino)azetidine-1-carbonyl)benzyl)phthalazin-1(2H)-one] belongs at most 5 nM; to `CC(NC1CN(C(=O)c2cc(Cc3n[nH]c(=O)c4ccccc34)ccc2F)C1)C1(C)CC1` (stereo not shown) [Compound I-49, 4-(4-fluoro-3-(3-((1-(1-methylcyclopropyl)ethyl)amino)azetidine-1-carbonyl)benzyl)phthalazin-1(2H)-one], 5 to 50 nM; to `CC(CNC1CN(C(=O)c2cc(Cc3n[nH]c(=O)c4ccccc34)ccc2F)C1)C(F)(F)F` (stereo not shown) [Compound I-50, 4-(4-fluoro-3-(3-((3,3,3-trifluoro-2-methylpropyl)amino)azetidine-1-carbonyl)benzyl)phthalazin-1(2H)-one], 50 to 300 nM.
As for `C=CCNC1CN(C(=O)c2cc(Cc3n[nH]c(=O)c4ccccc34)ccc2F)C1` [Compound I-51, 4-(3-(3-(allylamino)azetidine-1-carbonyl)-4-fluorobenzyl)phthalazin-1(2H)-one], the IC50 lay within 5 to 50 nM.
As for `CC(C)CCNC1CN(C(=O)c2cc(Cc3n[nH]c(=O)c4ccccc34)ccc2F)C1` [Compound I-52, 4-(4-fluoro-3-(3-(isopentylamino)azetidine-1-carbonyl)benzyl)phthalazin-1(2H)-one], the figure is at most 5 nM; as for `CC(C)=CCNC1CN(C(=O)c2cc(Cc3n[nH]c(=O)c4ccccc34)ccc2F)C1` [Compound I-54, 4-(4-fluoro-3-(3-((3-methylbut-2-en-1-yl)amino)azetidine-1-carbonyl)benzyl)phthalazin-1(2H)-one], 5 to 50 nM.
Take `O=C(c1cc(Cc2n[nH]c(=O)c3ccccc23)ccc1F)N1CC(NCC2CCCC2)C1` [Compound I-55, 4-(3-(3-((cyclopentylmethyl)amino)azetidine-1-carbonyl)-4-fluorobenzyl)phthalazin-1(2H)-one]: the half-maximal inhibitory concentration (IC50) fell in the range of 5 to 50 nM.
To `O=C(c1cc(Cc2n[nH]c(=O)c3ccccc23)ccc1F)N1CC(NCCCC(F)(F)F)C1` [Compound I-56, 4-(4-fluoro-3-(3-((4,4,4-trifluorobutyl)amino)azetidine-1-carbonyl)benzyl)phthalazin-1(2H)-one] belongs 300 to 1000 nM; to `CCCCCNC1CN(C(=O)c2cc(Cc3n[nH]c(=O)c4ccccc34)ccc2F)C1` [Compound I-57, 4-(4-fluoro-3-(3-(pentylamino)azetidine-1-carbonyl)benzyl)phthalazin-1(2H)-one], 5 to 50 nM.
Compound `O=C(c1cc(Cc2n[nH]c(=O)c3ccccc23)ccc1F)N1CC(NCCC2CC2)C1` [Compound I-58, 4-(3-(3-((2-cyclopropylethyl)amino)azetidine-1-carbonyl)-4-fluorobenzyl)phthalazin-1(2H)-one] yielded an IC50 of 5 to 50 nM.
Consider `CCCNC1CN(C(=O)c2cc(Cc3n[nH]c(=O)c4ccccc34)ccc2F)C1` [Compound I-59, 4-(4-fluoro-3-(3-(propylamino)azetidine-1-carbonyl)benzyl)phthalazin-1(2H)-one], for which the IC50 was 5 to 50 nM.
`CN(Cc1ccncc1)[C@@H]1CCN(C(=O)c2cc(Cc3n[nH]c(=O)c4ccccc34)ccc2F)C1` [Compound I-61, (R)-4-(4-fluoro-3-(3-(methyl(pyridin-4-ylmethyl)amino)pyrrolidine-1-carbonyl)benzyl)phthalazin-1(2H)-one]: the IC50 is 50 to 300 nM.
As for `CN(Cc1cccnc1)C1CN(C(=O)c2cc(Cc3n[nH]c(=O)c4ccccc34)ccc2F)C1` [Compound I-66, 4-(4-fluoro-3-(3-(methyl(pyridin-3-ylmethyl)amino)azetidine-1-carbonyl)benzyl)phthalazin-1(2H)-one], the figure is 50 to 300 nM.
With `CN(C1CC1)C1CN(C(=O)c2cc(Cc3n[nH]c(=O)c4ccccc34)ccc2F)C1` [Compound I-69, 4-(3-(3-(cyclopropyl(methyl)amino)azetidine-1-carbonyl)-4-fluorobenzyl)phthalazin-1(2H)-one], the IC50 was 50 to 300 nM.
Compound `CCN(C1CC1)C1CN(C(=O)c2cc(Cc3n[nH]c(=O)c4ccccc34)ccc2F)C1` [Compound I-70, 4-(3-(3-(cyclopropyl(ethyl)amino)azetidine-1-carbonyl)-4-fluorobenzyl)phthalazin-1(2H)-one] showed an IC50 of 50 to 300 nM.
In turn, `CN(C1CCC1)C1CN(C(=O)c2cc(Cc3n[nH]c(=O)c4ccccc34)ccc2F)C1` [Compound I-71, 4-(3-(3-(cyclobutyl(methyl)amino)azetidine-1-carbonyl)-4-fluorobenzyl)phthalazin-1(2H)-one] returned an IC50 of 50 to 300 nM.
`O=C(c1cc(Cc2n[nH]c(=O)c3ccccc23)ccc1F)N1CC(N2CCC(F)(F)C2)C1` [Compound I-73, 4-(3-(3-(3,3-difluoropyrrolidin-1-yl)azetidine-1-carbonyl)-4-fluorobenzyl)phthalazin-1(2H)-one] had an IC50 of 50 to 300 nM.
In turn, `O=C(c1cc(Cc2n[nH]c(=O)c3ccccc23)ccc1F)N1CC(N2CCC(F)CC2)C1` [Compound I-74, 4-(4-fluoro-3-(3-(4-fluoropiperidin-1-yl)azetidine-1-carbonyl)benzyl)phthalazin-1(2H)-one] registered an IC50 of 5 to 50 nM.
With `O=C(c1cc(Cc2n[nH]c(=O)c3ccccc23)ccc1F)N1CC(N2CCCC2)C1` [Compound I-76, 4-(4-fluoro-3-(3-(pyrrolidin-1-yl)azetidine-1-carbonyl)benzyl)phthalazin-1(2H)-one], the IC50 fell in the range of 5 to 50 nM.
On to `O=C(c1cc(Cc2n[nH]c(=O)c3ccccc23)ccc1F)N1CC(N2CCCCC2)C1` [Compound I-77, 4-(4-fluoro-3-(3-(piperidin-1-yl)azetidine-1-carbonyl)benzyl)phthalazin-1(2H)-one], for which the IC50 was 50 to 300 nM.
In turn, `CN1CCN(C2CN(C(=O)c3cc(Cc4n[nH]c(=O)c5ccccc45)ccc3F)C2)CC1` [Compound I-78, 4-(4-fluoro-3-(3-(4-methylpiperazin-1-yl)azetidine-1-carbonyl)benzyl)phthalazin-1(2H)-one] returned a half-inhibitory concentration (IC50) of 300 to 1000 nM.
`O=C(c1cc(Cc2n[nH]c(=O)c3ccccc23)ccc1F)N1CC(Nc2ccccc2)C1` [Compound I-79, 4-(4-fluoro-3-(3-(phenylamino)azetidine-1-carbonyl)benzyl)phthalazin-1(2H)-one]: the IC50 lay in the range of 50 to 300 nM.
`C#CCNC1CN(C(=O)c2cc(Cc3n[nH]c(=O)c4ccccc34)ccc2F)C1` [Compound I-81, 4-(4-fluoro-3-(3-(prop-2-yn-1-ylamino)azetidine-1-carbonyl)benzyl)phthalazin-1(2H)-one]: the IC50 was in the range of 50 to 300 nM.

The record behind these values is patent publication US9844550B2, “Phtalazinone derivatives and manufacturing process thereof” (ILDONG PHARM CO., LTD., priority 2013, dated 2017).
